Measurements from US20250082931A1, “Treating Gastric Cancer Using TTFields Combined with XELOX, FOLFOX or the Individual Constituents Thereof” (Novocure GmbH, priority 2019, published 2025).

What was measured:
KATO III cells [1] = assay: Overall effect (cytotoxic effect x clonogenic effect); settings: 72 h
Protocol: After 6-14 days the colonies were fixed, stained and counted to determine clonogenic effect. The overall effect was calculated by multiplying the cytotoxic effect and the clonogenic effect.
Overall effect: Each colony number was multiply in the percent of cytotoxic effect of its dish and averages and standard deviations of each treatment were calculated in Excel software. […] Significant was determine by 2-way ANOVA followed Multiple comparison using GraphPed software.

KATO III cells [2] = assay: Apoptosis analysis by Annexin V / 7AAD staining; assay type: cell-based; settings: for AnnV+ 7AAD+ cell fraction / AnnV+ 7AAD− cell fraction / AnnV− 7AAD+ cell fraction / AnnV− 7AAD− cell fraction: 72 h
Protocol: After 72 h of treatment the media and the cells were collected, and cytotoxicity was determined by cell counts. Cells (including cells from the media) were stained for Annexin V and 7AAD for apoptosis analysis. For the testing of the clonogenic effect, cells were seeded for colonies.
Cells were seeded on inovitro dishes and petri dishes 24 h before starting the experiments. Media containing the indicated concentration of each chemotherapy component alone or FOLFOX and control media was added to the cells and the dishes were connected to TTFields (as in SOP-BI-009) or grown in 37° C., 5% CO2 for 72 h. Each treatment included 8 repeats (8 dishes). The media was replaced every 24 h. At the end of the experiment the cells were collected, and cytotoxicity was determined by cell counts, small number of cells were seeded for colonies and the cells (including cells from the media) were stained for Annexin V and 7AAD for apoptosis analysis.
Apoptotic effect: Average of cell fraction of each marker staining (Annexin V and 7AAD) of at least 5 dishes from each treatment was calculated in Excel software. The averages from these repeats was calculated to averages and is presented in stacked bar graph using GraphPed software.

AGS cells = assay: Apoptosis analysis by Annexin V / 7AAD staining; assay type: cell-based; settings: for AnnV+ 7AAD+ cell fraction / AnnV+ 7AAD− cell fraction / AnnV− 7AAD+ cell fraction / AnnV− 7AAD− cell fraction: 72 h
[3] = 1.5 nM, + TTFields 150 kHz 1.6 V/cm
[4] = 4.5 nM, + TTFields 150 kHz 1.6 V/cm
[5] = 13.5 nM, + TTFields 150 kHz 1.6 V/cm
[6] = 40 nM, + TTFields 150 kHz 1.6 V/cm
[7] = FOLFOX experiment, 1.5 uM, + TTFields 150 kHz 1.6 V/cm
[8] = FOLFOX experiment, 1.5 uM, no TTFields
[9] = 0.5 uM, + TTFields 150 kHz 1.0 V/cm
[10] = 1.5 uM, + TTFields 150 kHz 1.0 V/cm
[11] = 4.5 uM, + TTFields 150 kHz 1.0 V/cm

`O=c1[nH]cc(F)c(=O)[nH]1` [5-FU, 5-fluorouracil] was tested, and the “overall effect (colonies count multiplying the cytotoxic effect)” value (shortened to “overall effect”) (KATO III cells [1]; 1.5 uM, + TTFields 150 kHz 1.6 V/cm) was 24 % from control, the “overall effect” value (KATO III cells [1]; 1.5 uM, no TTFields) was 58 % from control and the “overall effect” value (KATO III cells [1]; 4.5 uM, + TTFields 150 kHz 1.6 V/cm) was 18 % from control. For the same compound, the “overall effect” value (KATO III cells [1]; 4.5 uM, no TTFields) was 34 % from control, the “overall effect” value (KATO III cells [1]; 13.5 uM, + TTFields 150 kHz 1.6 V/cm) was 3 % from control and the “overall effect” value (KATO III cells [1]; 13.5 uM, no TTFields) was 4 % from control. The “overall effect” value (KATO III cells [1]; 40 uM, + TTFields 150 kHz 1.6 V/cm) was 0 % from control, the “overall effect” value (KATO III cells [1]; 40 uM, no TTFields) was 0 % from control and the “elevation in percent of cells that undergo apoptosis, drug + TTFields compared to drug alone” value (KATO III cells [2]) was “higher”. For the same compound, the “AnnV+ 7AAD+ cell fraction” value (KATO III cells [2]; [3]) was 19.12%, the “AnnV+ 7AAD− cell fraction” value (KATO III cells [2]; [3]) was 17.49% and the “AnnV− 7AAD+ cell fraction” value (KATO III cells [2]; [3]) was 2.24%. The “AnnV− 7AAD− cell fraction” value (KATO III cells [2]; [3]) was 61.16%, the “AnnV+ 7AAD+ cell fraction” value (KATO III cells [2]; 1.5 nM, no TTFields) was 11.98% and the “AnnV+ 7AAD− cell fraction” value (KATO III cells [2]; 1.5 nM, no TTFields) was 11.44%. The “AnnV− 7AAD+ cell fraction” value (KATO III cells [2]; 1.5 nM, no TTFields) was 1.95%, the “AnnV− 7AAD− cell fraction” value (KATO III cells [2]; 1.5 nM, no TTFields) was 74.64% and the “AnnV+ 7AAD+ cell fraction” value (KATO III cells [2]; [4]) was 20.44%. The “AnnV+ 7AAD− cell fraction” value (KATO III cells [2]; [4]) was 13.34%, the “AnnV− 7AAD+ cell fraction” value (KATO III cells [2]; [4]) was 4.25% and the “AnnV− 7AAD− cell fraction” value (KATO III cells [2]; [4]) was 61.98%. For the same compound, the “AnnV+ 7AAD+ cell fraction” value (KATO III cells [2]; 4.5 nM, no TTFields) was 11.92%, the “AnnV+ 7AAD− cell fraction” value (KATO III cells [2]; 4.5 nM, no TTFields) was 11.00% and the “AnnV− 7AAD+ cell fraction” value (KATO III cells [2]; 4.5 nM, no TTFields) was 3.59%. For the same compound, the “AnnV− 7AAD− cell fraction” value (KATO III cells [2]; 4.5 nM, no TTFields) was 73.50%, the “AnnV+ 7AAD+ cell fraction” value (KATO III cells [2]; [5]) was 17.18% and the “AnnV+ 7AAD− cell fraction” value (KATO III cells [2]; [5]) was 16.21%. The “AnnV− 7AAD+ cell fraction” value (KATO III cells [2]; [5]) was 2.01%, the “AnnV− 7AAD− cell fraction” value (KATO III cells [2]; [5]) was 64.61% and the “AnnV+ 7AAD+ cell fraction” value (KATO III cells [2]; 13.5 nM, no TTFields) was 11.72%. The “AnnV+ 7AAD− cell fraction” value (KATO III cells [2]; 13.5 nM, no TTFields) was 12.44%, the “AnnV− 7AAD+ cell fraction” value (KATO III cells [2]; 13.5 nM, no TTFields) was 2.22% and the “AnnV− 7AAD− cell fraction” value (KATO III cells [2]; 13.5 nM, no TTFields) was 73.64%. For the same compound, the “AnnV+ 7AAD+ cell fraction” value (KATO III cells [2]; [6]) was 21.25%, the “AnnV+ 7AAD− cell fraction” value (KATO III cells [2]; [6]) was 11.40% and the “AnnV− 7AAD+ cell fraction” value (KATO III cells [2]; [6]) was 3.58%. The “AnnV− 7AAD− cell fraction” value (KATO III cells [2]; [6]) was 63.76%, the “AnnV+ 7AAD+ cell fraction” value (KATO III cells [2]; 40 nM, no TTFields) was 12.48% and the “AnnV+ 7AAD− cell fraction” value (KATO III cells [2]; 40 nM, no TTFields) was 10.55%. For the same compound, the “AnnV− 7AAD+ cell fraction” value (KATO III cells [2]; 40 nM, no TTFields) was 3.42%, the “AnnV− 7AAD− cell fraction” value (KATO III cells [2]; 40 nM, no TTFields) was 73.55% and the “AnnV+ 7AAD+ cell fraction” value (KATO III cells [2]; [7]) was 32.59%. The “AnnV+ 7AAD− cell fraction” value (KATO III cells [2]; [7]) was 16.09%, the “AnnV− 7AAD+ cell fraction” value (KATO III cells [2]; [7]) was 1.39% and the “AnnV− 7AAD− cell fraction” value (KATO III cells [2]; [7]) was 49.94%. For the same compound, the “AnnV+ 7AAD+ cell fraction” value (KATO III cells [2]; [8]) was 22.22%, the “AnnV+ 7AAD− cell fraction” value (KATO III cells [2]; [8]) was 11.36% and the “AnnV− 7AAD+ cell fraction” value (KATO III cells [2]; [8]) was 0.96%. For the same compound, the “AnnV− 7AAD− cell fraction” value (KATO III cells [2]; [8]) was 65.47%, the “elevation in percent of cells that undergo apoptosis, drug + TTFields compared to drug alone” value (AGS cells) was “higher” and the “AnnV+ 7AAD+ cell fraction” value (AGS cells; [9]) was 8.00%. The “AnnV+ 7AAD− cell fraction” value (AGS cells; [9]) was 6.38%, the “AnnV− 7AAD+ cell fraction” value (AGS cells; [9]) was 1.03% and the “AnnV− 7AAD− cell fraction” value (AGS cells; [9]) was 84.58%. The “AnnV+ 7AAD+ cell fraction” value (AGS cells; 0.5 uM, no TTFields) was 5.33%, the “AnnV+ 7AAD− cell fraction” value (AGS cells; 0.5 uM, no TTFields) was 4.48% and the “AnnV− 7AAD+ cell fraction” value (AGS cells; 0.5 uM, no TTFields) was 1.40%. For the same compound, the “AnnV− 7AAD− cell fraction” value (AGS cells; 0.5 uM, no TTFields) was 88.78%, the “AnnV+ 7AAD+ cell fraction” value (AGS cells; [10]) was 9.05% and the “AnnV+ 7AAD− cell fraction” value (AGS cells; [10]) was 5.90%. For the same compound, the “AnnV− 7AAD+ cell fraction” value (AGS cells; [10]) was 1.28%, the “AnnV− 7AAD− cell fraction” value (AGS cells; [10]) was 83.80% and the “AnnV+ 7AAD+ cell fraction” value (AGS cells; 1.5 uM, no TTFields) was 5.48%. The “AnnV+ 7AAD− cell fraction” value (AGS cells; 1.5 uM, no TTFields) was 5.03%, the “AnnV− 7AAD+ cell fraction” value (AGS cells; 1.5 uM, no TTFields) was 1.23% and the “AnnV− 7AAD− cell fraction” value (AGS cells; 1.5 uM, no TTFields) was 88.25%. For the same compound, the “AnnV+ 7AAD+ cell fraction” value (AGS cells; [11]) was 12.35%, the “AnnV+ 7AAD− cell fraction” value (AGS cells; [11]) was 6.78% and the “AnnV− 7AAD+ cell fraction” value (AGS cells; [11]) was 2.48%. For the same compound, the “AnnV− 7AAD− cell fraction” value (AGS cells; [11]) was 78.43%, the “AnnV+ 7AAD+ cell fraction” value (AGS cells; 4.5 uM, no TTFields) was 6.40% and the “AnnV+ 7AAD− cell fraction” value (AGS cells; 4.5 uM, no TTFields) was 5.08%. The “AnnV− 7AAD+ cell fraction” value (AGS cells; 4.5 uM, no TTFields) was 1.25% and the “AnnV− 7AAD− cell fraction” value (AGS cells; 4.5 uM, no TTFields) was 87.28%.
